This is an account of results in article PMC7969007, “The CRISPR ancillary effector Can2 is a dual-specificity nuclease potentiating type III CRISPR defence” (Nucleic Acids Research, 2021).

In one test the target is T1, SthCan2 (Sulfobacillus thermosulfidooxidans, UniProt A0A8I3AZU2).
T1 construct: synthetic gene in pEHisV5TEV, His tag cut by TEV, E. coli C43 (SeMet in B834 for the crystal); homodimer; residues 3-366 traced
T1 sequence (A0A8I3AZU2 1-366): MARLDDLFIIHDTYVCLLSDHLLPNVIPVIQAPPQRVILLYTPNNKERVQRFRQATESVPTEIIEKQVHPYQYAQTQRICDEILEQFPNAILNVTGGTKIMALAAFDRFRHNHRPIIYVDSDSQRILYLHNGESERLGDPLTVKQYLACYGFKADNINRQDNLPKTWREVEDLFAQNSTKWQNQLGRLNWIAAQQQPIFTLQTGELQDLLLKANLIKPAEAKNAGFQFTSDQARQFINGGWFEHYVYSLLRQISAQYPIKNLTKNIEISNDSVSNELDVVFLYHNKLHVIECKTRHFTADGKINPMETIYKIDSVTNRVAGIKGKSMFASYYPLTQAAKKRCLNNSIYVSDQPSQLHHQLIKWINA
The test can be described thus: X-ray crystal structure (co-crystal, […] A). The following applies: SeMet protein, protein:cA4 1:1 molar; one cA4 per dimer at the CARF dimer interface; allosteric activator of Mn2+-dependent nuclease; not degraded by the enzyme. The class given is binding.

The target in test [1] is Can2 (CRISPR ancillary nuclease 2) from Sulfobacillus thermosulfidooxidans, selenomethionine labelled (Sulfobacillus thermosulfidooxidans). The test can be described thus: crystal structure; SeMet SthCan2 at 8 mg/ml co-crystallised with cA4 at 1:1 protein:cA4; 20% (w/v) PEG 3350, 0.2 M ammonium nitrate pH 6.3, room temperature; 2.02 Å; four protein molecules in the asymmetric unit.

The term stoichiometry N denotes the number of molecules, sites or subunits per partner or assembly.

With `Nc1ncnc2c1ncn2[C@@H]1O[C@@H]2COP(=O)(O)O[C@H]3[C@@H](O)[C@H](n4cnc5c(N)ncnc54)O[C@@H]3COP(=O)(O)O[C@H]3[C@@H](O)[C@H](n4cnc5c(N)ncnc54)O[C@@H]3COP(=O)(O)O[C@H]3[C@@H](O)[C@H](n4cnc5c(N)ncnc54)O[C@@H]3COP(=O)(O)O[C@H]2[C@H]1O` [cA4], on SthCan2, the “X-ray crystal structure (co-crystal, 2.02 A)” value is “form two dimers each bound to a molecule of cA4”.

“Can2 (CRISPR ancillary nuclease 2) from Sulfobacillus thermosulfidooxidans, selenomethionine labelled (enzyme)” returned a stoichiometry N in test [1] of 2.
